According to US20260242416A1, “ANTIMICROBIAL PEPTIDES” (priority 2023, published 2026):
Read-outs that look alike come from different tables or passages of the source. Where a SMILES comes first, the peptide text is derived from it.

Legend:
[1] = test system: Salmonella enterica serovar Enteritidis (human clinical isolate); assay type: cell-based
Procedure: (§1) Bacteria were grown overnight at 37° C. in Mueller-Hinton Broth (MHB; Sigma-Aldrich, St. Louis. MO, USA) in a shaking incubator and aliquoted into cryovials with a 50% glycerol solution in a 1:1 ratio. No additives were added to the MHB during the growth of bacterial isolates. Glycerol stocks were stored at −80° C.
(§2) The antimicrobial activity of the putative AMPs was determined by a broth microdilution assay as described by the Clinical and Laboratory Standards Institute, with the published adaptations for testing of cationic peptides. Escherichia coli 25922 and Staphylococcus aureus 29213 isolates were purchased from the American Type Culture Collection (ATCC; Manassas, VA, USA). A human clinical isolate of Salmonella enterica serovar Enteritidis was provided by the BC Centre for Disease Control. Bacteria from stocks stored at −80° C. were streaked onto nonselective Columbia blood agar with 5% sheep blood (Oxoid) and incubated overnight at 37° C. Next, 2-4 colonies were streaked onto a new agar plate to ensure uniform health of colonies used in the broth microdilution assay. Isolated colonies were suspended in MHB and the optical density was measured with a spectrophotometer to create an initial inoculum concentration of approximately 1×10^8 cfu/mL. The inoculum was diluted 1:250 to a final concentration of 2-8×10^5 cfu/mL, which was confirmed by performing a Total Viability Count (TVC). The TVC consisted of plating a 1:1000 dilution of the final inoculum on nonselective media and was also used to confirm the health and purity of the inoculum in each trial.
(§3) Lyophilized 80 μg peptide aliquots synthesized by GenScript (Piscataway, NJ, USA) were resuspended to 1.28 mg/mL with UltraPure water (Thermo Fisher Scientific, Waltham, MA, USA) and serially diluted in polypropylene 96-well microtiter plates (Greiner Bio-One #650261, Kremsmunster, Austria) from 128 down to 0.5 μg/mL. Two columns per plate were reserved for growth and sterility controls. Inoculum was added to the wells containing the peptide and the growth control. Plates were incubated for 20-24 h at 37° C. The minimum inhibitory concentration (MIC) was determined as the lowest peptide concentration where there was no visible bacterial growth.

[2] = test system: E. coli ATCC 25922; assay type: cell-based, Escherichia coli
Procedure: as §1, §2, §3

[3] = test system: S. aureus ATCC 29213; assay type: cell-based, Staphylococcus aureus
Procedure: as §1, §2, §3

[4] = serovar Enteritidis (human clinical isolate)

MIC (ug/mL) S. Enteritidis [1, 4] | MIC (ug/mL) E. coli ([2]; ATCC 25922) | MIC (ug/mL) S. aureus ([3]; ATCC 29213) | Structure (SMILES) | MIC (ug/mL) S. Enteritidis ([1]; Table 14, second value of the cell, three independent experiments, highest concentration tested 128) | MIC (ug/mL) E. coli ([2]; Table 14, first value of the cell, three independent experiments, highest concentration tested 128) | MIC (ug/mL) S. aureus ([3]; Table 14, third value of the cell, three independent experiments, highest concentration tested 128)
>128/>128/>128 ug/mL | >128/>128/>128 ug/mL | >128/>128/>128 ug/mL | CC[C@H](C)[C@H](NC(=O)[C@H](CCCNC(=N)N)NC(=O)[C@@H](NC(=O)[C@@H]1CCCN1C(=O)[C@H](CCCNC(=N)N)NC(=O)[C@@H](NC(=O)[C@@H]1CCCN1C(=O)[C@H](CCC(N)=O)NC(=O)[C@H](CC(C)C)NC(=O)CNC(=O)[C@@H]1CCCN1C(=O)[C@@H]1CCCN1C(=O)[C@@H](NC(=O)[C@H](CCCCN)NC(=O)[C@H](Cc1c[nH]c2ccccc12)NC(=O)[C@H](C)NC(=O)[C@@H](NC(=O)[C@H](C)N)[C@@H](C)O)C(C)C)[C@@H](C)CC)[C@@H](C)CC)C(=O)N[C@@H](CCCNC(=N)N)C(=O)N1CCC[C@H]1C(=O)N[C@@H](CC(C)C)C(=O)N[C@@H](CS)C(=O)NCC(=O)N[C@@H](CC(N)=O)C(=O)N[C@@H](CC(=O)O)C(=O)N[C@@H](CCCCN)C(=O)N[C@@H](CO)C(=O)O [PeNi16] (H-ATAWKVPPGLQPIRPIRIRPLCGNDKS-OH; N-terminus and C-terminus assumed) | – | – | –
>128/>128/>128 ug/mL | >128/>128/>128 ug/mL | >128/>128/>128 ug/mL | C[C@H](NC(=O)CNC(=O)[C@H](CCCNC(=N)N)NC(=O)[C@H](CCC(=O)O)NC(=O)[C@H](CCC(=O)O)NC(=O)[C@@H](N)CCCCN)C(=O)N1CCC[C@H]1C(=O)N[C@@H](CCCCN)C(=O)NCC(=O)N[C@@H](CS)C(=O)N[C@@H](Cc1c[nH]c2ccccc12)C(=O)N[C@H](C(=O)N[C@@H](CCCCN)C(=O)N[C@@H](CO)C(=O)N[C@@H](Cc1ccc(O)cc1)C(=O)N1CCC[C@H]1C(=O)N1CCC[C@H]1C(=O)N[C@@H](CCCCN)C(=O)N1CCC[C@H]1C(=O)N[C@@H](CS)C(=O)N[C@@H](CO)C(=O)NCC(=O)N[C@@H](CCCCN)C(=O)N[C@@H](CCCNC(=N)N)C(=O)O)[C@@H](C)O [PeNi13] (H-KEERGAPKGCWTKSYPPKPCSGKR-OH; N-terminus and C-terminus assumed) | – | – | –
>128/>128/>128 ug/mL | >128/>128/>128 ug/mL | >128/>128/>128 ug/mL | CC[C@H](C)[C@H](NC(=O)[C@H](CC(C)C)NC(=O)CNC(=O)[C@H](Cc1c[nH]c2ccccc12)NC(=O)CN)C(=O)N[C@@H](CC(N)=O)C(=O)N[C@H](C(=O)N[C@@H](CCCCN)C(=O)N[C@H](C(=O)N1CCC[C@H]1C(=O)N1CCC[C@H]1C(=O)N[C@H](C(=O)N[C@@H](CC(C)C)C(=O)N[C@@H](Cc1c[nH]cn1)C(=O)N[C@@H](CCCCN)C(=O)N[C@H](C(=O)N[C@@H](CO)C(=O)N[C@H](C(=O)N1CCC[C@H]1C(=O)N[C@@H](CC(C)C)C(=O)N[C@H](C(=O)N[C@@H](CO)C(=O)N[C@@H](CCCCN)C(=O)N[C@@H](CCCNC(=N)N)C(=O)O)C(C)C)C(C)C)C(C)C)C(C)C)[C@@H](C)CC)[C@@H](C)CC [ApMe3] (H-GWGLINIKIPPVLHKVSVPLVSKR-OH; N-terminus and C-terminus assumed) | – | – | –
>128/>128/>128 ug/mL | >128/>128/>128 ug/mL | >128/>128/>128 ug/mL | CC[C@H](C)[C@H](N)C(=O)N[C@H](C(=O)N[C@@H](CCCNC(=N)N)C(=O)N[C@@H](C)C(=O)N[C@H](C(=O)N[C@@H](C)C(=O)N[C@@H](C)C(=O)N[C@@H](CCC(=O)O)C(=O)N[C@@H](CS)C(=O)N[C@@H](CC(C)C)C(=O)N[C@@H](CCCCN)C(=O)N[C@@H](Cc1c[nH]cn1)C(=O)N1CCC[C@H]1C(=O)N[C@@H](Cc1c[nH]c2ccccc12)C(=O)N[C@@H](CC(C)C)C(=O)N[C@@H](CCCCN)C(=O)N[C@H](C(=O)N[C@@H](CCCCN)C(=O)N[C@@H](CCCCN)C(=O)O)[C@@H](C)CC)[C@@H](C)O)[C@@H](C)CC [BoAr3, IIRATAAECLKHPWLKIKK] (H-IIRATAAECLKHPWLKIKK-OH; N-terminus and C-terminus assumed) | – | – | –

Second part, the compound before the results:

Structure (SMILES) | MIC (ug/mL) S. Enteritidis [1, 4] | MIC (ug/mL) E. coli ([2]; ATCC 25922) | MIC (ug/mL) S. aureus ([3]; ATCC 29213) | MIC (ug/mL) S. Enteritidis ([1]; Table 14, second value of the cell, three independent experiments, highest concentration tested 128) | MIC (ug/mL) E. coli ([2]; Table 14, first value of the cell, three independent experiments, highest concentration tested 128) | MIC (ug/mL) S. aureus ([3]; Table 14, third value of the cell, three independent experiments, highest concentration tested 128)
CC[C@H](C)[C@H](NC(=O)[C@H](CCCCN)NC(=O)[C@H](CC(C)C)NC(=O)[C@H](Cc1c[nH]c2ccccc12)NC(=O)[C@@H]1CCCN1C(=O)[C@H](Cc1c[nH]cn1)NC(=O)[C@H](CCCCN)NC(=O)[C@H](CC(C)C)NC(=O)[C@H](CS)NC(=O)[C@H](CCC(=O)O)NC(=O)[C@H](C)NC(=O)[C@H](C)NC(=O)[C@@H](NC(=O)[C@H](C)N)[C@@H](C)O)C(=O)N[C@@H](CCCCN)C(=O)N[C@@H](CCCCN)C(=O)O [BoAr2, ATAAECLKHPWLKIKK] (H-ATAAECLKHPWLKIKK-OH; N-terminus and C-terminus assumed) | >128/>128/>128 ug/mL | >128/>128/>128 ug/mL | >128/>128/>128 ug/mL | – | – | –
CC[C@H](C)[C@H](NC(=O)[C@H](CC(=O)O)NC(=O)[C@H](CO)NC(=O)[C@H](CC(C)C)NC(=O)[C@@H]1CCCN1C(=O)[C@@H](N)[C@@H](C)O)C(=O)N[C@@H](Cc1ccccc1)C(=O)N[C@@H](CCCNC(=N)N)C(=O)NCC(=O)N[C@@H](CCC(N)=O)C(=O)N[C@@H](CC(C)C)C(=O)N[C@@H](CCCNC(=N)N)C(=O)N[C@@H](CO)C(=O)N[C@@H](CCCNC(=N)N)C(=O)N[C@H](C(=O)N[C@@H](CO)C(=O)N[C@@H](CCCNC(=N)N)C(=O)O)C(C)C [NaVi1, TPLSDIFRGQLRSRVSR] (H-TPLSDIFRGQLRSRVSR-OH; N-terminus and C-terminus assumed) | >128/>128/>128 ug/mL | >128/>128/>128 ug/mL | >128/>128/>128 ug/mL | – | – | –
CC[C@H](C)[C@H](NC(=O)[C@@H](N)CO)C(=O)N[C@@H](CC(C)C)C(=O)N[C@@H](CO)C(=O)N[C@H](C(=O)N[C@@H](CC(C)C)C(=O)N[C@@H](CO)C(=O)N[C@@H](Cc1c[nH]cn1)C(=O)N[C@@H](CCCCN)C(=O)N[C@@H](CCCNC(=N)N)C(=O)O)[C@@H](C)O [ApMe5, SILSTLSHKR] (H-SILSTLSHKR-OH; N-terminus and C-terminus assumed) | >128/>128/>128 ug/mL | >128/>128/>128 ug/mL | >128/>128/>128 ug/mL | – | – | –
CC(C)C[C@H](NC(=O)CNC(=O)[C@H](Cc1ccccc1)NC(=O)[C@@H]1CCCN1C(=O)[C@@H](N)C(C)C)C(=O)N[C@@H](CCCCN)C(=O)N1CCC[C@H]1C(=O)N[C@@H](CCCNC(=N)N)C(=O)O [TeRu1, VPFGLKPR] (H-VPFGLKPR-OH; N-terminus and C-terminus assumed) | >128/>128/>128 ug/mL | >128/>128/>128 ug/mL | >128/>128/>128 ug/mL | – | – | –
CSCC[C@H](NC(=O)[C@@H](N)C(C)C)C(=O)N[C@@H](CC(C)C)C(=O)N1CCC[C@H]1C(=O)N[C@@H](CCCCN)C(=O)N[C@@H](Cc1ccccc1)C(=O)N[C@@H](CCCCN)C(=O)N[C@@H](CCCNC(=N)N)C(=O)O [MiDe1, VMLPKFKR] (H-VMLPKFKR-OH; N-terminus and C-terminus assumed) | >128/>128/>128 ug/mL | >128/>128/>128 ug/mL | >128/>128/>128 ug/mL | – | – | –
CC[C@H](C)[C@H](NC(=O)CN)C(=O)N[C@@H](Cc1ccccc1)C(=O)N[C@@H](CO)C(=O)N[C@@H](CC(C)C)C(=O)N[C@H](C(=O)N[C@@H](CCCCN)C(=O)NCC(=O)N[C@@H](C)C(=O)N[C@@H](C)C(=O)N[C@@H](CCCCN)C(=O)O)[C@@H](C)CC [LeBo1, GIFSLIKGAAK] (H-GIFSLIKGAAK-OH; N-terminus and C-terminus assumed) | – | – | – | >128/>128/>128 ug/mL | >128/>128/>128 ug/mL | >128/>128/>128 ug/mL
CC[C@H](C)[C@H](NC(=O)[C@H](Cc1ccccc1)NC(=O)[C@H](CCCCN)NC(=O)[C@@H](NC(=O)[C@H](CCCCN)NC(=O)[C@@H](N)CC(N)=O)[C@@H](C)CC)C(=O)N[C@@H](CC(N)=O)C(=O)N[C@@H](CCCCN)C(=O)N[C@@H](Cc1ccc(O)cc1)C(=O)N[C@H](C(=O)N[C@@H](CCCCN)C(=O)N[C@@H](CCCCN)C(=O)N[C@H](C(=O)N[C@@H](CCC(N)=O)C(=O)N[C@@H](CC(C)C)C(=O)N[C@@H](CCCCN)C(=O)N[C@@H](CCCCN)C(=O)N[C@H](C(=O)N[C@@H](CC(C)C)C(=O)N[C@H](C(=O)N[C@@H](CCCCN)C(=O)N[C@@H](CO)C(=O)O)C(C)C)[C@@H](C)CC)C(C)C)C(C)C [BoCo1] (H-NKIKFINKYVKKVQLKKILVKS-OH; N-terminus and C-terminus assumed) | >128/>128/>128 ug/mL | >128/>128/>128 ug/mL | >128/>128/>128 ug/mL | – | – | –
